Test results taken from patent US9266834B2, “1, 4-disubstituted 3-cyano-pyridone derivatives and their use as positive allosteric modulators of MGLUR2-receptors” (JANSSEN PHARMACEUTICALS, INC., priority 2006, dated 2016).

Each compound was assayed against T1, human mGluR2 receptor (Homo sapiens, UniProt Q14416) (assay: [35S]GTPγS binding assay (GTPγS-PAM): positive allosteric modulation in presence of glutamate at EC25, membranes from transfected CHO cells). Conditions: in presence of mGluR2 agonist glutamate at predetermined EC25 concentration, averages of duplicate values of 11-concentration response curves, read-out: GTPgS - hR2 PAM pEC50 (converted).
T1 construct: expressed in transfected cells; host or cells: CHO cells (membrane preparation)
Type: biochemical
Source text: The compounds provided in the present invention are positive allosteric modulators of mGluR2. These compounds appear to potentiate glutamate responses by binding to an allosteric site other than the glutamate binding site. The response of mGluR2 to a concentration of glutamate is increased when compounds of Formula (I) are present. Compounds of Formula (I) are expected to have their effect substantially at mGluR2 by virtue of their ability to enhance the function of the receptor. The behaviour of positive allosteric modulators tested at mGluR2 using the [^35S]GTPγS binding assay method described below and which is suitable for the identification of such compounds, and more particularly the compounds according to Formula (I), are shown in Table 4.
[^35S]GTPγS Binding Assay
The [^35S]GTPγS binding is a functional membrane-based assay used to study G-protein coupled receptor (GPCR) function whereby incorporation of a non-hydrolysable form of GTP, [^35S]GTPγS (guanosine 5′-triphosphate, labelled with […] ^35S), is measured. The G-protein o subunit catalyzes the exchange of guanosine 5′-diphosphate (GDP) by guanosine triphosphate (GTP) and on activation of the GPCR by an agonist, [^35S]GTPγS, becomes incorporated and cannot be cleaved to continue the exchange cycle (Harper (1998) Current Protocols in Pharmacology 2.6.1-10, John Wiley & Sons, Inc.). […] Here we describe the use of the [^35S]GTPγS binding assay using membranes from cells transfected with the human mGluR2 receptor and adapted from Schaffhauser et al ((2003) Molecular Pharmacology 4:798-810) for the detection of the positive allosteric modulation (PAM) properties of the compounds of this invention.
CHO-cells were cultured to pre-confluence and stimulated with 5 mM butyrate for 24 hours, prior to washing in PBS, and then collection by scraping in homogenisation buffer (50 mM Tris-HCl buffer, pH 7.4, 4° C.). Cell lysates were homogenized briefly (15 s) using an ultra-turrax homogenizer. The homogenate was centrifuged at 23 500×g for 10 minutes and the supernatant discarded. The pellet was resuspended in 5 mM Tris-HCl, pH 7.4 and centrifuged again (30 000×g, 20 min, 4° C.). The final pellet was resuspended in 50 mM HEPES, pH 7.4 and stored at −80° C. in appropriate aliquots before use. Protein concentration was determined by the Bradford method (Bio-Rad, USA) with bovine serum albumin as standard.
Measurement of mGluR2 positive allosteric modulators in membranes containing human mGluR2 was performed using frozen membranes that were thawed and briefly homogenised prior to pre-incubation in 96-well microplates (15 μg/assay well, 30 minutes, 30° C.) in assay buffer (50 mM HEPES pH 7.4, 100 mM NaCl, 3 mM MgCl2, 50 μM GDP, 10 μg/ml saponin,) with increasing concentrations of positive allosteric modulator (from 0.3 nM to 50 μM) and either a minimal pre-determined concentration of glutamate (PAM assay), or no added glutamate. For the PAM assay, membranes were pre-incubated with glutamate at EC25 concentration, i.e. a concentration that gives 25% of the maximal response glutamate, and is in accordance to published data (Pin et al. (1999) Eur. J. Pharmacol. 375:277-294). After addition of [^35S]GTPγS (0.1 nM, f.c.) to achieve a total reaction volume of 200 μl, microplates were shaken briefly and further incubated to allow [^35S]GTPγS incorporation on activation (30 minutes, 30° C.). The reaction was stopped by rapid vacuum filtration over glass-fibre filter plates (Unifilter 96-well GF/B filter plates, Perkin-Elmer, Downers Grove, USA) microplate using a 96-well plate cell harvester (Filtermate, Perkin-Elmer, USA), and then by washing three times with 300 μl of ice-cold wash buffer (Na2PO4.2H2O 10 mM, NaH2PO4.H2O 10 mM, pH=7.4). Filters were then air-dried, and 40 μl of liquid scintillation cocktail (Microscint-O) was added to each well, and membrane-bound [^35S]GTPγS was measured in a 96-well scintillation plate reader (Top-Count, Perkin-Elmer, USA). […]

T1 sequence (Q14416 19-872): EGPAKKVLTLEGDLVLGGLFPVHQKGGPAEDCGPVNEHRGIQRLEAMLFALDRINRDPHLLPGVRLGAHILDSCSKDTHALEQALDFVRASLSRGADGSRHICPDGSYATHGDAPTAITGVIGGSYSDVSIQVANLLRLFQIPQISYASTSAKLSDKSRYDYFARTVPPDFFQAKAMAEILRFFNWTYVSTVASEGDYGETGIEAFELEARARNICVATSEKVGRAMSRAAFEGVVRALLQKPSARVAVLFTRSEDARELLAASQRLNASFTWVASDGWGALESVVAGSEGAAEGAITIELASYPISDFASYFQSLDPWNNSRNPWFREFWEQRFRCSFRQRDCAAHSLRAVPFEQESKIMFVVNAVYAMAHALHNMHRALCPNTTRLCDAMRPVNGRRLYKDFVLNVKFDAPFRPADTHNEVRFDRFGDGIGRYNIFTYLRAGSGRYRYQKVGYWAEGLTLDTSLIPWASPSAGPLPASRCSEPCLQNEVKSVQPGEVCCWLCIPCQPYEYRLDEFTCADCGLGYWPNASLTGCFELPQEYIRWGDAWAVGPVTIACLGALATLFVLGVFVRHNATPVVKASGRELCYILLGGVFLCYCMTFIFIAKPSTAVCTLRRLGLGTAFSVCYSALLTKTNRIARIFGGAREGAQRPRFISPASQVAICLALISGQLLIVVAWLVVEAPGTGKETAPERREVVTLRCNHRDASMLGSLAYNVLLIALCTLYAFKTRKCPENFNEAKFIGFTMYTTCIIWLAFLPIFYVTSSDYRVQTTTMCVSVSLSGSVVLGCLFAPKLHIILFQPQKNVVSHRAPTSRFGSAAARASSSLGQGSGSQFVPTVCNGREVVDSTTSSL

SMILES	EC50 [nM]
CC(C)CCn1ccc(N2CCN(Cc3ccccc3)CC2C)c(C#N)c1=O (stereo not drawn) [2-021]	1260
CCCCn1ccc(-c2ccc(Oc3ccnc(N4CCOCC4)c3)cc2)c(C#N)c1=O [1-073]	398
COc1ccc(-c2ccn(Cc3ccc(C)cc3)c(=O)c2C#N)cc1 [1-021]	631
CC(C)CCn1ccc(N2CCOc3ccccc32)c(C#N)c1=O [5-030]	6310
CC(C)CCn1ccc(N2CCCC(Nc3ccccc3)C2)c(C#N)c1=O (stereo not drawn) [4-023]	5010
N#Cc1c(N2CCN(Cc3ccncc3)CC2)ccn(Cc2ccc(OC(F)(F)F)cc2)c1=O [2-047]	5010
CC1COCC(C)N1Cc1ccc(-c2ccn(Cc3ccc(OC(F)(F)F)cc3)c(=O)c2C#N)cc1 (stereo not drawn) [1-036]	631
CCOc1ccccc1OC1CCN(c2ccn(CCC(C)C)c(=O)c2C#N)CC1 [4-021]	200
CC(C)CCn1ccc(N2CCN(c3ccc(-c4ccccc4)nn3)CC2)c(C#N)c1=O [2-033]	2000
CC(C)CCn1ccc(-c2ccc(OC(F)F)cc2)c(C#N)c1=O [1-119]	631
CC(C)CCn1ccc(N2CCN(CCOc3cccc(C(F)(F)F)c3)CC2)c(C#N)c1=O [2-020]	794
CC(C)CCn1ccc(-c2ccc(-n3ccnn3)cc2)c(C#N)c1=O [1-236]	2000
CC(C)CCn1ccc(-c2ccc(OCc3nnc[nH]3)cc2)c(C#N)c1=O [1-168]	6310
CCCCn1ccc(-c2ccc(Oc3cnccn3)cc2)c(C#N)c1=O [1-076]	3980
CC(C)CCn1ccc(OCCc2ccccc2)c(C#N)c1=O [1-276]	2510
CC(C)CCn1ccc(OCc2ccc(Br)cc2)c(C#N)c1=O [1-278]	316
Cc1onc(-c2ccccc2)c1COc1ccn(CCC(C)C)c(=O)c1C#N [5-045]	3980
CC(C)CCn1ccc(-c2ccc(Cn3ccnc3)cc2)c(C#N)c1=O [1-248]	3160
COc1cc(-c2ccn(CCC(C)C)c(=O)c2C#N)ccc1NC(C)C [1-183]	251
N#Cc1c(C#Cc2ccncc2)ccn(CC2CCCCC2)c1=O [5-049]	1580
CC(C)CCn1ccc(-c2ccc(Oc3ccccc3)cc2)c(C#N)c1=O [1-140]	39.8
COC1CCN(c2ccc(-c3ccn(CCC(C)C)c(=O)c3C#N)cc2)CC1 [1-221]	398
CC(C)CCn1ccc(-c2ccc3c(ccn3-c3ccccc3)c2)c(C#N)c1=O [5-019]	50.1

SMILES	EC50 [nM]
CC(C)CCn1ccc(N2CCN(Cc3ccc(F)c(F)c3)CC2)c(C#N)c1=O [2-015]	1260
N#Cc1c(N2CCC(O)(c3cccnc3)CC2)ccn(Cc2ccc(OC(F)(F)F)cc2)c1=O [4-063]	5010
Cc1nnc(N2CCN(c3ccn(CCC(C)C)c(=O)c3C#N)CC2)c2ccccc12 [2-034]	3980
COc1ccc(-c2ccn(Cc3cccc(Cl)c3)c(=O)c2C#N)cc1 [1-026]	501
CC(C)CCn1ccc(-c2ccc(Oc3ccncc3)cc2F)c(C#N)c1=O [1-161]	631
COc1cc(F)c(-c2ccn(CCC(C)C)c(=O)c2C#N)c(F)c1 [1-116]	631
CC(C)CCn1ccc(-c2ccc(CSc3ccncc3)cc2)c(C#N)c1=O [1-258]	316
COc1cc(-c2ccn(CCC(C)C)c(=O)c2C#N)ccc1OCc1cccnc1 [1-166]	1580
N#Cc1c(OCc2ccccc2)ccn(Cc2ccc(OC(F)(F)F)cc2)c1=O [1-272]	126
N#Cc1c(N[C@@H]2C[C@H]2c2ccccc2)ccn(CC2CC2)c1=O (racemic) [1-294]	3160
CCCCn1ccc(-c2cccc(Oc3ccncc3)c2)c(C#N)c1=O [1-062]	6310
CC(C)CCn1ccc(C#Cc2ccccc2)c(C#N)c1=O [1-267, 3-cyano-1-(3-methylbutyl)-4-(phenylethynyl)pyridine-2(1H)-one]	79.4
CC(C)CCn1ccc(-c2ccc(Oc3ccccn3)cc2)c(C#N)c1=O [1-154]	501
C[C@@H]1CN(c2ccn(CC3CC3)c(=O)c2C#N)C[C@H](C)N1c1ncccn1 [2-041]	3160
CC(C)CCn1ccc(CCc2ccc(N(C)C)cc2)c(C#N)c1=O [1-263]	1000
CCCCn1ccc(-c2ccc(Oc3ncccn3)cc2)c(C#N)c1=O [1-074]	5010
CC(C)Oc1ccc(-c2ccn(Cc3ccc(F)cc3)c(=O)c2C#N)cc1Cl [1-025]	100
CC(C)CCn1ccc(CCc2cccc(N(C)C)c2)c(C#N)c1=O [1-262]	1580
CC(C)CCn1ccc(N2CCC(n3ccc4ccccc43)CC2)c(C#N)c1=O [4-035]	100
CCCCn1ccc(Oc2ccc(Br)cc2)c(C#N)c1=O [1-273]	631
CC(C)CCn1ccc(N2CCC3(CCN(c4ncccn4)CC3)CC2)c(C#N)c1=O [5-034]	398
CCCCn1ccc(N2CCC(Oc3ccc(C#N)cc3)CC2)c(C#N)c1=O [4-009]	501
CC(C)CCn1ccc(-c2ccc(N3CCCC3)cc2)c(C#N)c1=O [1-218]	200

SMILES	EC50 [nM]
Cc1ccc(C2(O)CCN(c3ccn(Cc4ccc(OC(F)(F)F)cc4)c(=O)c3C#N)CC2)cn1 [4-053]	3160
CC(C)CCn1ccc(N2CCN(Cc3ccc4c(c3)OCO4)CC2)c(C#N)c1=O [2-016]	631
CC(C)CCn1ccc(-c2ccc(C3(C(N)=O)CC3)cc2)c(C#N)c1=O [1-246]	3980
CC(C)CCn1ccc(-c2ccc3[nH]ccc3c2)c(C#N)c1=O [5-016]	251
CC(C)CCn1ccc(C#Cc2cccc(N(C)C)c2)c(C#N)c1=O [1-269]	158
COc1cc2c(cc1OC)CN(c1ccn(CCC(C)C)c(=O)c1C#N)CC2 [5-032]	1260
CCCCn1ccc(-c2ccc(Cn3ccnc3C)cc2)c(C#N)c1=O [1-060]	1000
CCCCn1ccc(-c2ccc(Oc3ncccc3C(F)(F)F)cc2)c(C#N)c1=O [1-067]	158
CC(C)CCn1ccc(-c2ccc3c(cnn3Cc3ccncc3)c2)c(C#N)c1=O [5-025]	398
CC(C)CCn1ccc(Oc2ccc(N3CCCC3)cc2)c(C#N)c1=O [1-291]	501
CC(C)CCn1ccc(N2CCc3ccccc3C2)c(C#N)c1=O [5-003]	251
CCCCn1ccc(-c2ccc(Oc3cccc(C(F)(F)F)n3)cc2)c(C#N)c1=O [1-068]	251
CC(C)CCn1ccc(N[C@@H]2C[C@H]2c2ccccc2)c(C#N)c1=O (racemic) [1-304]	2000
CC(C)CCn1ccc(N2CCC(c3noc(-c4ccccc4)n3)CC2)c(C#N)c1=O [4-041]	126
CC(C)CCn1ccc(Nc2ccccc2)c(C#N)c1=O [1-298]	3980
N#Cc1c(-c2ccc(OCC3CC3)cc2F)ccn(CC2CC2)c1=O [1-003]	631
COCCNc1ccc(-c2ccn(CCC(C)C)c(=O)c2C#N)cc1 [1-174]	1580
CCCCn1ccc(-c2ccc(Oc3ccncn3)cc2)c(C#N)c1=O [1-075]	5010
Cc1ccccc1Cn1ccc(-c2cccs2)c(C#N)c1=O [1-015]	3980
COc1cc(-c2ccn(CCC(C)C)c(=O)c2C#N)ccc1OCCOC1CCCCO1 (stereo not drawn) [1-138]	794
CC(C)CCn1ccc(-c2ccc(CN(C)Cc3ccc(F)cc3)cc2)c(C#N)c1=O [1-197]	251
CC(C)CCn1ccc(-c2ccc(N3CCCCC3)cc2)c(C#N)c1=O [1-219]	200
CC(C)CCn1ccc(N2CCCN(c3ccccc3)CC2)c(C#N)c1=O [5-043]	1000
